# Measured values from patent US12662498B2 (priority 2017, dated 2026).
# Experiment: ICH stability study of psilocybin batches (appearance, water content, purity, assay)
structure (smiles),measurement,setting,value
CN(C)CCc1c[nH]c2cccc(OP(=O)(O)O)c12 [Batch 170231],Impurities by HPLC: RRT 1.62 (Psilocin),"T = 6 months, 2-8° C.",0.35%
same,Impurities by HPLC: RRT 1.70,"T = 6 months, 2-8° C.",LT 0.05%
same,Impurities by HPLC: line without printed RRT (after RRT0.69),"T = 6 months, 2-8° C.",0.07%
same,Impurity at RRT 1.89,"T = 6 months, 2-8° C.",LT 0.05%
same,Impurity at RRT 2.45,"T = 6 months, 2-8° C.",LT 0.05%
same,Total Impurities,"T = 6 months, 2-8° C.",0.80%
same,Water content by loss on drying,"T = 6 months, 2-8° C.",0.06% ^w/w % w/w
same,Appearance,"T = 6 months, 25° C./60% RH",An off white solid.
same,Assay by HPLC (on a dry basis),"T = 6 months, 25° C./60% RH",98.04% ^w/w % w/w
same,Chemical Purity By HPLC,"T = 6 months, 25° C./60% RH",99.19%
same,Impurities LT 0.05%,"T = 6 months, 25° C./60% RH",0.34%
same,Impurities by HPLC: RRT0.69,"T = 6 months, 25° C./60% RH",0.06%
same,Impurities by HPLC: RRT 1.49,"T = 6 months, 25° C./60% RH",LT 0.05%
same,Impurities by HPLC: RRT 1.62 (Psilocin),"T = 6 months, 25° C./60% RH",0.34%
same,Impurities by HPLC: RRT 1.70,"T = 6 months, 25° C./60% RH",LT 0.05%
same,Impurities by HPLC: line without printed RRT (after RRT0.69),"T = 6 months, 25° C./60% RH",0.07%
same,Impurity at RRT 1.89,"T = 6 months, 25° C./60% RH",LT 0.05%
same,Impurity at RRT 2.45,"T = 6 months, 25° C./60% RH",LT 0.05%
same,Total Impurities,"T = 6 months, 25° C./60% RH",0.81%
same,Water content by loss on drying,"T = 6 months, 25° C./60% RH",0.32% ^w/w % w/w
same,Appearance,"T = 6 months, 40° C./75% RH",An off white solid.
same,Assay by HPLC (on a dry basis),"T = 6 months, 40° C./75% RH",100.10% ^w/w % w/w
same,Chemical Purity By HPLC,"T = 6 months, 40° C./75% RH",99.12%
same,Impurities LT 0.05%,"T = 6 months, 40° C./75% RH",0.36%
same,Impurities by HPLC: RRT0.69,"T = 6 months, 40° C./75% RH",0.06%
same,Impurities by HPLC: RRT 1.49,"T = 6 months, 40° C./75% RH",LT 0.05%
same,Impurities by HPLC: RRT 1.62 (Psilocin),"T = 6 months, 40° C./75% RH",0.38%
same,Impurities by HPLC: RRT 1.70,"T = 6 months, 40° C./75% RH",LT 0.05%
same,Impurities by HPLC: line without printed RRT (after RRT0.69),"T = 6 months, 40° C./75% RH",0.08%
same,Impurity at RRT 1.89,"T = 6 months, 40° C./75% RH",LT 0.05%
same,Impurity at RRT 2.45,"T = 6 months, 40° C./75% RH",LT 0.05%
same,Total Impurities,"T = 6 months, 40° C./75% RH",0.88%
same,Water content by loss on drying,"T = 6 months, 40° C./75% RH",2.26% ^w/w % w/w
same,Appearance,"T = 9 months, 2-8° C.",An off white solid.
same,Assay by HPLC (on a dry basis),"T = 9 months, 2-8° C.",97.53% ^w/w % w/w
same,Chemical Purity By HPLC,"T = 9 months, 2-8° C.",99.16%
same,Impurities by HPLC: RRT0.69,"T = 9 months, 2-8° C.",LT 0.05%
same,Impurities by HPLC: RRT 1.49,"T = 9 months, 2-8° C.",0.07%
same,Impurities by HPLC: RRT 1.62 (Psilocin),"T = 9 months, 2-8° C.",0.06%
same,Impurities by HPLC: RRT 1.70,"T = 9 months, 2-8° C.",0.37%
same,Impurities by HPLC: line without printed RRT (after RRT0.69),"T = 9 months, 2-8° C.",LT 0.05%
same,Impurity at RRT 1.89,"T = 9 months, 2-8° C.",LT 0.05%
same,Impurity at RRT 2.45,"T = 9 months, 2-8° C.",LT 0.05%
same,Total Impurities,"T = 9 months, 2-8° C.",0.84%
same,Water content by loss on drying,"T = 9 months, 2-8° C.",0.21% ^w/w % w/w
same,Appearance,"T = 9 months, 25° C./60% RH",An off white solid.
same,Assay by HPLC (on a dry basis),"T = 9 months, 25° C./60% RH",98.12% ^w/w % w/w
same,Chemical Purity By HPLC,"T = 9 months, 25° C./60% RH",99.16%
same,Impurities by HPLC: RRT0.69,"T = 9 months, 25° C./60% RH",LT 0.05%
same,Impurities by HPLC: RRT 1.49,"T = 9 months, 25° C./60% RH",0.05%
same,Impurities by HPLC: RRT 1.62 (Psilocin),"T = 9 months, 25° C./60% RH",0.06%
same,Impurities by HPLC: RRT 1.70,"T = 9 months, 25° C./60% RH",0.37%
same,Impurities by HPLC: line without printed RRT (after RRT0.69),"T = 9 months, 25° C./60% RH",LT 0.05%
same,Impurity at RRT 1.89,"T = 9 months, 25° C./60% RH",LT 0.05%
same,Impurity at RRT 2.45,"T = 9 months, 25° C./60% RH",LT 0.05%
same,Total Impurities,"T = 9 months, 25° C./60% RH",0.84%
same,Water content by loss on drying,"T = 9 months, 25° C./60% RH",0.10% ^w/w % w/w
same,Appearance,"T = 12 months, 2-8° C.",An off white solid.
same,Assay by HPLC (on a dry basis),"T = 12 months, 2-8° C.",99.63% ^w/w % w/w
same,Chemical Purity By HPLC,"T = 12 months, 2-8° C.",99.25%
same,Impurities LT 0.05%,"T = 12 months, 2-8° C.",0.38%
same,Impurities by HPLC: RRT0.69,"T = 12 months, 2-8° C.",LT 0.05%
same,Impurities by HPLC: RRT 1.49,"T = 12 months, 2-8° C.",LT 0.05%
same,Impurities by HPLC: RRT 1.62 (Psilocin),"T = 12 months, 2-8° C.",0.37%
same,Impurities by HPLC: RRT 1.70,"T = 12 months, 2-8° C.",LT 0.05%
same,Impurity at RRT 1.89,"T = 12 months, 2-8° C.",LT 0.05%
same,Impurity at RRT 2.45,"T = 12 months, 2-8° C.",LT 0.05%
same,Total Impurities,"T = 12 months, 2-8° C.",0.75%
same,Water content by loss on drying,"T = 12 months, 2-8° C.",0.49% ^w/w % w/w
same,Appearance,"T = 12 months, 25° C./60% RH",An off white solid.
same,Assay by HPLC (on a dry basis),"T = 12 months, 25° C./60% RH",98.97% ^w/w % w/w
same,Chemical Purity By HPLC,"T = 12 months, 25° C./60% RH",99.25%
same,Impurities LT 0.05%,"T = 12 months, 25° C./60% RH",0.38%
same,Impurities by HPLC: RRT0.69,"T = 12 months, 25° C./60% RH",LT 0.05%
same,Impurities by HPLC: RRT 1.49,"T = 12 months, 25° C./60% RH",LT 0.05%
same,Impurities by HPLC: RRT 1.62 (Psilocin),"T = 12 months, 25° C./60% RH",0.37%
same,Impurities by HPLC: RRT 1.70,"T = 12 months, 25° C./60% RH",LT 0.05%
same,Impurity at RRT 2.45,"T = 12 months, 25° C./60% RH",LT 0.05%
same,Total Impurities,"T = 12 months, 25° C./60% RH",0.75%
same,Water content by loss on drying,"T = 12 months, 25° C./60% RH",0.61% ^w/w % w/w
